Paper PMC6219699 (Nuclear medicine communications, 2011)

Target: T1, human sodium/iodide symporter (hNIS) (Homo sapiens, UniProt Q92911)
T1 sequence (Q92911 1-643): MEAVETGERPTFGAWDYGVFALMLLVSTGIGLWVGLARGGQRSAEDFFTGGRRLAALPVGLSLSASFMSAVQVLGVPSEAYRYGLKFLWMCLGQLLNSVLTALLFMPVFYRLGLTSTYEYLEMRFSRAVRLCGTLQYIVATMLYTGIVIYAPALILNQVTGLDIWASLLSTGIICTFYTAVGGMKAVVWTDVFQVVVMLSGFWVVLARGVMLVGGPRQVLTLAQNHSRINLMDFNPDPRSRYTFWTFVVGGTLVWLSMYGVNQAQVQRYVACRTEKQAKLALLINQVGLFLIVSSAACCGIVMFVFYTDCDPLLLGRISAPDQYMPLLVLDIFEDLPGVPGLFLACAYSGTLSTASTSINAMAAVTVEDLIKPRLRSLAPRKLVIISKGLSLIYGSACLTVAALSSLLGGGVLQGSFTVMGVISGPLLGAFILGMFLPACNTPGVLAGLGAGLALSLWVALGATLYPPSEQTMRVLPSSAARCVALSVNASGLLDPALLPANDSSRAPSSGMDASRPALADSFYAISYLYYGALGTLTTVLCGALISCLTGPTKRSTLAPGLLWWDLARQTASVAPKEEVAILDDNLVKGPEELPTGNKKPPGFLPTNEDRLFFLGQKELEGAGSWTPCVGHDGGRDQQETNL
Format: cell-based

IC50: 740 nM
Structure (SMILES): F[B-](F)(F)F [tetrafluoroborate]
